Where two headings read alike, the source gives them in different places.
Tests used:
[1] = NO donor, NO release; cited from earlier work
Sprague Dawley rats [2] = assay: Residual blood LDH activity value and residual blood Hb in the dialyzer after 4 hours of circulation (NO gas); type: in vivo, rat; details: for amount of residual blood Hb: compared to control group
Description: (§1) NO gas of which the concentration was adjusted to 200 ppm, 400 ppm, and 800 ppm was added to the dialysate via a gas exchanger. As a control group, nitrogen gas (N2) was added to the dialysate instead of NO gas.
(§2) FIG. 3 is a schematic diagram showing the structure of a circulation circuit in which the dialyzer is connected to a rat. […] In a case where it was possible to perform the 4-hours circulation, the residual blood in the dialyzer was evaluated.
In FIG. 6, “Control” indicates the results of the control group, and “200 ppm”, “400 ppm”, and “800 ppm” indicate the results of a group in which NO gas of each concentration was supplied to the dialysate.

Sprague Dawley rats [3] = assay: Methemoglobin (Met-Hb) during rat blood dialysis with NO gas; type: in vivo
Description: as §1

Sprague Dawley rats [4] = assay: Measurement of NO concentration in blood and dialysate during rat blood dialysis (OxiSelect Nitrite/Nitrate kit); type: in vivo; details: 800 ppm NO gas; blood (out) venous side vs blood (in) arterial side of dialysis unit; 1 hour
Description: as §1
For a group in which 800 ppm of NO gas was supplied to the dialysate, the dialysate was supplied to the blood (in) on an arterial side of the dialysis unit, the blood (out) on a venous side of the dialysis unit, the dialysate (in) in the dialysate supply channel for supplying the dialysate to the dialysis unit, and the dialysate (out) in the dialysate discharge channel for discharging the dialysate from the dialysis unit were collected 1 hour after the start of circulation, and the NO concentration was measured using a commercially available kit (“OxiSelect In Vitro Nitric Oxide (Nitrite/Nitrate) Assay Kit (Colorimetric)” made by Cell Biolabs, Inc.). The NO concentration was measured as the sum of the concentrations of NO2^− and NO3^− after the NO was completely hydrolyzed. For this reason, hereinafter, there is a case where the total concentration of […] is referred to as the NO concentration.

Sprague Dawley rats [5] = assay: Rat blood dialysis with NO gas supplied to the dialysate: 4-hour circulation achievement rate; type: in vivo; details: for 4-hour circulation achievement rate: rat blood dialysis
Description: An extracorporeal perfusion type polymethylpentene membrane oxygenator was used for gas exchange.
as §1, §2
During the experiment, there was a case where the dialyzer inlet pressure or venous pressure increased, the blood coagulation in the dialyzer or the blood coagulation in the circuit were determined, and the circulation was stopped halfway. Thus, in all groups, the number of 4-hour circulation achievements with respect to the total number of experiments was calculated as the 4-hour circulation achievement rate.
FIG. 4 is a graph showing the 4-hour circulation achievement rate. In FIG. 4, “Control” indicates the results of the control group, and “200 ppm”, “400 ppm”, and “800 ppm” indicate the results of a group in which NO gas of each concentration was supplied to the dialysate.

Sprague Dawley rats [6] = test system: Sprague Dawley rats
Description: (§3) Male Sprague Dawley rats (body weight: 300 g to 400 g) that were 8 to 12 weeks old were used. The rats were inhaled and anesthetized using isoflurane 1.5% to 3.0% as an anesthetic. Blood was removed from the carotid artery, and blood was returned into the tail vein. The blood flow rate was 0.5 mL/min to 1.0 mL/min, the dialysate flow rate was 3 mL/min, and the blood dialysis was performed for 4 hours by a parallel flow operation. Heparin was administered at 0.7 units/g at the start of dialysis.
(§4) Dialysates in which the sodium nitrite concentration was adjusted to be 40 μM, 80 μM, and 120 μM were used. As a control group, a dialysate containing no sodium nitrite was used.
(§5) During the experiment, arterial pressure, dialyzer inlet pressure, and venous pressure were measured at intervals of 15 minutes. Additionally, methemoglobin (Met-Hb) was measured at the start of the experiment and then at intervals of 60 minutes. Additionally, after the circulation was ended, the dialyzer was washed, and the amount of residual blood hemoglobin (Hb) amount and the activity value of residual blood lactate dehydrogenase (LDH) were measured.
After the end of 4 hours of circulation, the dialyzer was washed with 10 mL of Lactec Injection and then a 0.5% Triton (Registered trademark) solution was circulated for 2 hours. After that, an LDH activity value in a washing solution was measured using a commercially available kit (“Cytotoxicity Measurement KitPLUS (LDH)” made by Roche Diagnostics K.K.) and used as the residual blood LDH activity value.

Sprague Dawley rats [7] = test system: Sprague Dawley rats; remark: listed apart in the source
Description: Blood dialysis of rats was performed by changing the amount of nitrite to be supplied to the dialysate, and the optimal concentration of nitrite was examined.
as §3
As the dialysis unit (dialyzer), a small rat dialyzer having a cellulose triacetate membrane, 140 hollow fibers, an effective length of 146 mm, and a membrane area of 0.014 m^2 were used.
as §4, §5
The experiment was performed with a circulation time of 4 hours. When the dialyzer inlet pressure or venous pressure exceeded 250 mmHg, the circulation was ended.

Sprague Dawley rats [8] = details: all groups (40, 80, 120 μM sodium nitrite)
Description: as §3, §4, §5

[9] = extrapolated from the 200-800 ppm results
[10] = 80 μM sodium nitrite in dialysate, compared to control group
[11] = 120 μM sodium nitrite in dialysate, compared to control group

Molecule: CC(C)N(CCCN)/[N+]([O-])=N/O [NOC5]
- Half-life [1]: 25 min

Molecule: COCC(/C(C)=C/C(=N/O)C(N)=O)[N+](=O)[O-] (stereo not drawn) [NOR1]
- Half-life [1]: 1.8 min

Molecule: NCCN(CCN)/[N+]([O-])=N/O [NOC18]
- Half-life [1]: 1260 min

Molecule: nitric oxide [NO gas]
- amount of residual blood Hb (Sprague Dawley rats [2]; 200 ppm NO gas supplied to the dialysate): significantly lower
- residual blood LDH activity value (Sprague Dawley rats [2]; 200 ppm NO gas supplied to the dialysate, compared to control group (N2), after 4 hours): significantly lower
- amount of residual blood Hb (Sprague Dawley rats [2]; 400 ppm NO gas supplied to the dialysate): significantly lower
- residual blood LDH activity value (Sprague Dawley rats [2]; 400 ppm NO gas supplied to the dialysate, compared to control group (N2), after 4 hours): significantly lower
- amount of residual blood Hb (Sprague Dawley rats [2]; 800 ppm NO gas supplied to the dialysate): significantly lower
- residual blood LDH activity value (Sprague Dawley rats [2]; 800 ppm NO gas supplied to the dialysate, compared to control group (N2), after 4 hours): significantly lower
- residual blood LDH activity value (Sprague Dawley rats [2]; as the NO concentration was higher (200 to 800 ppm)): lower value
- NO concentration at which the residual blood LDH activity value was 0 U/L (Sprague Dawley rats [2]; [9]): 6 µM
- Met-Hb (Sprague Dawley rats [3]; 800 ppm NO gas): ≤ 10%
- adverse event (Sprague Dawley rats [3]; NO gas of 200 ppm to 800 ppm supplied to the dialysate): no adverse event occurred
- Met-Hb (Sprague Dawley rats [3]; all NO-added groups (200 ppm to 800 ppm)): less than 10%
- amount of increase in NO concentration in blood (Sprague Dawley rats [4]): about 3 μM
- NO concentration at which the 4-hour circulation achievement rate was 100% (Sprague Dawley rats [5]; [9]): 5.4 µM
- 4-hour circulation achievement rate (Sprague Dawley rats [5]; 800 ppm compared with 200 ppm and 400 ppm): higher
- 4-hour circulation achievement rate (Sprague Dawley rats [5]; as the concentration of NO gas supplied to the dialysate was higher (200, 400, 800 ppm)): increased

Molecule: O=NO [sodium nitrite]
- residual blood LDH activity value (Sprague Dawley rats [6]; 40 μM sodium nitrite in dialysate, compared to control group): significantly lower
- residual blood LDH activity value (Sprague Dawley rats [6]; 80 μM and 120 μM as compared to 40 μM): lower value
- amount of residual blood Hb (Sprague Dawley rats [6]; [10]): significantly lower
- residual blood LDH activity value (Sprague Dawley rats [6]; [10]): significantly lower
- amount of residual blood Hb (Sprague Dawley rats [6]; [11]): significantly lower
- residual blood LDH activity value (Sprague Dawley rats [6]; [11]): significantly lower
- blood pressure (arterial pressure) during circulation (Sprague Dawley rats [7]; 40 μM sodium nitrite in dialysate): stable for 4 hours
- blood pressure (arterial pressure) during circulation (Sprague Dawley rats [7]; 80 μM sodium nitrite in dialysate): stable for 4 hours
- blood pressure (arterial pressure) during circulation (Sprague Dawley rats [7]; 120 μM sodium nitrite in dialysate, vs control group): significantly lower
- blood pressure (arterial pressure) during circulation (Sprague Dawley rats [7]; 120 μM sodium nitrite in dialysate, vs control group, listed as nitrite ions): slight decrease
- 4 hours circulation (Sprague Dawley rats [7]; sodium nitrite groups (40, 80, 120 μM) and control): circulate stably for 4 hours
- Met-Hb concentration (Sprague Dawley rats [8]): ≤ 2%

Molecule: CNCCCN(C)/[N+]([O-])=N/O [NOC7]
- Half-life [1]: 5 min

Molecule: CCNCCN(CC)[N+]([O-])=NO [NOC12]
- Half-life [1]: 100 min

Molecule: CC/C(=C\C(CNC(=O)c1cccnc1)=N\O)C(C)[N+](=O)[O-] (stereo not drawn) [NOR4]
- Half-life [1]: 60 min
